The structures appear in SMILES notation. Counter-ions that a name gives are not always drawn. Like-named read-outs stand apart in the source and are kept apart here.

One assay addresses Human NK1 Receptor (Homo sapiens (Human), UniProt P25103). Nature of the assay: Human NK1 receptor binding assay: radioligand (125I-Bolton-Hunter-SP) binding inhibitory activity using receptor from human lymphoblast cells (IM-9). Conditions: hNK1 receptor binding inhibition.
In assay [1] the target is Human NK2 (hNK2) receptor (Homo sapiens (Human), UniProt P21452). Briefly: Human NK2 receptor binding assay: radioligand ([125I]-NK-A) binding inhibitory activity using membrane fraction of CHO cell expressing human NK2 (hNK2) receptor. To be noted: hNK2 receptor binding inhibition. The source says: Human NK2 Receptor Binding Assay
The target in assay [2] is Human NK3 (hNK3) receptor (Homo sapiens (Human), UniProt P29371).
Experimental: Human NK3 Receptor Binding Assay
CHO cells expressing hNK3 receptor were cultured in a MEMα medium (Nikken Seibutsu Igaku Kenkyusho, K.K.) containing 100 U/mL penicillin, 100 μg/mL streptomycin and 10% inactivated dialyzed serum. The medium was removed, the adhered cells were washed with PBS, and PBS containing 5 mM EDTA was added to detach the cells from the flask. The cells were collected by centrifugation, suspended in suspension buffer A (50 mM Tris-HCl (pH 7.4) containing 120 mM NaCl, 5 mM KCl, 2 μg/mL chymostatin, 40 μg/mL bacitracin, 40 μg/ml APMSF, 1 mM EDTA), disrupted by a Polytron homogenizer (Kinematika), and centrifuged at 800×g for 10 min. The supernatant was recovered and ultracentrifuged at 100,000×g for 25 min. The precipitation fraction was suspended in suspension buffer B (50 mM Tris-HCl (pH 7.4), 0.02% bovine serum albumin, 2 μg/ml chymostatin, 40 μg/ml bacitracin, 40 μg/mL APMSF, 3 mM MnCl2), and cryopreserved (−80° C.) as a receptor reference standard.
Measurement buffer (50 mM Tris-HCl (pH 7.4), 0.02% bovine serum albumin, 2 μg/ml chymostatin, 40 μg/mL bacitracin, 40 μg/mL APMSF, 3 mM MnCl2) (50 μL) was added to a 96-well microassay plate. The membrane reference standard (300 μg/mL) suspended in a measurement buffer was added by 50 μL. […] Furthermore, 400 μM [^125I]-NK-B (Neurokinin-B (N-Me-Phe^7), [^125I]His^3-) (PerkinElmer) solution was added to each well by 50 μL.
After reaction at 25° C. for 30 min, the reaction was quenched using a cell harvester (PerkinElmer) by rapid filtration on a GF/C filter plate, and the cells were washed 5 times with 250 μL of a 50 mM Tris-HCl buffer (pH 7.4) containing 0.02% bovine serum albumin. The GF/C filter plate was dried, MicroScinti-0 (Perkin Elmer) was added by 20 μL, and the radioactivity was measured on a TopCount (PerkinElmer). The GF/C filter plate used had been immersed in 0.3% polyethyleneimine for one day.
The specific binding level is shown by a value obtained by subtracting non-specific binding level from the total binding level. The binding inhibitory activity of the test compound is shown by a ratio of the value obtained by subtracting the measurement value with addition of a test compound from the total binding level, to the value of the specific binding level.
Where [3] appears, read: read-out: IC50 value hNK3, hNK3 receptor binding inhibition.

Chain of Human NK1 Receptor (P25103 whole entry): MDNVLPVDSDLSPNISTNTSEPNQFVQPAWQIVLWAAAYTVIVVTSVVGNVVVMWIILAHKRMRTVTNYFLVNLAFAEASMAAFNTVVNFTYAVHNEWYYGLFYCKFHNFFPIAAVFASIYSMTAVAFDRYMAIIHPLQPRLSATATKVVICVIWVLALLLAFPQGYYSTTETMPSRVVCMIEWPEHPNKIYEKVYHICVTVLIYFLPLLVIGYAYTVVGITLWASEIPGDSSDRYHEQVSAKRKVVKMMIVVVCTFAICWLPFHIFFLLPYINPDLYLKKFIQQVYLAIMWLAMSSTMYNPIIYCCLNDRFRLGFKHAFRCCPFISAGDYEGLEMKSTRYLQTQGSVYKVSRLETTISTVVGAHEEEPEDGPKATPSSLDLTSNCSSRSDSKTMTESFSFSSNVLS
Chain of Human NK2 (hNK2) receptor (P21452 whole entry): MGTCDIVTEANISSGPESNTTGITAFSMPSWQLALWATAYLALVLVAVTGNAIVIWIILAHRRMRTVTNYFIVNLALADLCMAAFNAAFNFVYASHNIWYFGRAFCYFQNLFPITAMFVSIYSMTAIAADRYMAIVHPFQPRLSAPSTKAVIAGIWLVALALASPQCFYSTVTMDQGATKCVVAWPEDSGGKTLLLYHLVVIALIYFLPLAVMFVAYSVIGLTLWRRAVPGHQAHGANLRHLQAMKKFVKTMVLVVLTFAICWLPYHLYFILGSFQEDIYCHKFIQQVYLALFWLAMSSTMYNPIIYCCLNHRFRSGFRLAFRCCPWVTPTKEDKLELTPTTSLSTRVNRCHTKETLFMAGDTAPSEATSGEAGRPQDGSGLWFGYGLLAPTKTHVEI
Chain of Human NK3 (hNK3) receptor (P29371 whole entry): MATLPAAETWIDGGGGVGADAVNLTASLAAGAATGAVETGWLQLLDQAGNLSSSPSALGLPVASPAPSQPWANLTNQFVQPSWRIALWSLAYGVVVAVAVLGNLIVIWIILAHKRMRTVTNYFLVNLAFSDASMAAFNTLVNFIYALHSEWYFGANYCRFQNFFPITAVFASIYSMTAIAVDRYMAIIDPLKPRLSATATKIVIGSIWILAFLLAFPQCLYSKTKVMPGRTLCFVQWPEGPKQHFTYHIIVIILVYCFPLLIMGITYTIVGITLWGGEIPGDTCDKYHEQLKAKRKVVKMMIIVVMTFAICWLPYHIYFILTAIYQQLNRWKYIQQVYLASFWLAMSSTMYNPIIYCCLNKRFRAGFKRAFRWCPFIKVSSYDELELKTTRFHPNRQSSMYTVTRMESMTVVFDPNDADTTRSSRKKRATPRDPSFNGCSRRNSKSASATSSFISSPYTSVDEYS

`CN(C(=O)N(C)[C@@H]1CN(C(=O)NC2CCOCC2)C[C@H]1c1ccc(F)cc1)c1cc(C(F)(F)F)cc(C(F)(F)F)c1` [Example 378, (3S,4R)-3-[{[3,5-bis(trifluoromethyl)phenyl](methyl)carbamoyl}(methyl)amino]-4-(4-fluorophenyl)-N-(tetrahydro-2H-pyran-4-yl)pyrrolidine-1-carboxamide]: the IC50 on Human NK1 Receptor amounted to 0.039 nM; in assay [1], 59 nM; in assay [2] (setting [3]), 650 nM.
`CC(=O)N1CCC(C(=O)N2C[C@@H](N(C)C(=O)N(C)c3cc(C(F)(F)F)cc(C(F)(F)F)c3)[C@H](c3ccc(F)cc3)C2)CC1` [Example 71b]: the figures for the IC50 (on Human NK1 Receptor; in assay [1]) were 0.027 nM and 7.1 nM, respectively.
Consider `CC(=O)N1CCC(C(=O)N2CC[C@@H](N(C)C(=O)Nc3ccc(Cl)cc3)[C@H](c3ccc(Cl)c(Cl)c3)C2)CC1` [Example 61, 1-[(3R,4R)-1-[(1-acetylpiperidin-4-yl)carbonyl]-3-(3,4-dichlorophenyl)piperidin-4-yl]-3-(4-chlorophenyl)-1-methylurea], for which the IC50 at Human NK1 Receptor was 290 nM; in assay [1] it was above 100 nM; in assay [2] (setting [3]), 99 nM.
Consider `CC(=O)N1CCC(C(=O)N2C[C@@H](N(C)C(=O)N(C)c3cc(C(F)(F)F)cc(C(F)(F)F)c3)[C@H](c3ccc(F)cn3)C2)CC1` [Example 192, 1-[(3S,4R)-1-[(1-acetylpiperidin-4-yl)carbonyl]-4-(5-fluoropyridin-2-yl)pyrrolidin-3-yl]-3-[3,5-bis(trifluoromethyl)phenyl]-1,3-dimethylurea], for which the IC50 is 0.032 nM at Human NK1 Receptor, 120 nM in assay [1] and 4400 nM in assay [2].
As to `CN(C(=O)N(C)[C@@H]1CCN(C2CCS(=O)(=O)CC2)C[C@H]1c1ccc(F)cc1)c1cc(C(F)(F)F)cc(C(F)(F)F)c1` [Example 104, 1-[3,5-bis(trifluoromethyl)phenyl]-3-[(3R,4R)-1-(1,1-dioxidetetrahydro-2H-thiopyran-4-yl)-3-(4-fluorophenyl)piperidin-4-yl]-1,3-dimethylurea monohydrochloride], the half-inhibitory concentration (IC50) at Human NK1 Receptor was 0.073 nM; in assay [1], 100 nM.
`COC(=O)N[C@H]1CC[C@H](C(=O)N2C[C@@H](N(C)C(=O)N(C)c3cc(C(F)(F)F)cc(C(F)(F)F)c3)[C@H](c3ccc(F)cc3)C2)CC1` [Example 233, methyl (trans-4-{[(3S,4R)-3-[{[3,5-bis(trifluoromethyl)phenyl](methyl)carbamoyl}(methyl)amino]-4-(4-fluorophenyl)pyrrolidin-1-yl]carbonyl}cyclohexyl)carbamate]: the results for the IC50 (on Human NK1 Receptor; in assay [1]; in assay [2] (setting [3])) were 0.049 nM, 42 nM and 1100 nM, respectively.
With `CC(=O)N1CCC(C(=O)N2C[C@@H](N(C)C(=O)N(C)c3cc(C(F)(F)F)cc(C(F)(F)F)c3)[C@H](c3ccc(Cl)c(Cl)c3)C2)CC1` (racemic) [Example 66, 1-[(3S*, 4R*)-1-[(1-acetylpiperidin-4-yl)carbonyl]-4-(3,4-dichlorophenyl)pyrrolidin-3-yl]-3-[3,5-bis(trifluoromethyl)phenyl]-1,3-dimethylurea], the half-maximal inhibitory concentration (IC50) on Human NK1 Receptor is 0.075 nM; in assay [1], 2 nM.
The matching figures for `CN(C(=O)N(C)[C@@H]1CN(C(=O)C2CCN(C(=O)C(C)(C)O)CC2)C[C@H]1c1ccc(F)cc1)c1cc(C(F)(F)F)cc(C(F)(F)F)c1` [Example 308, 1-[3,5-bis(trifluoromethyl)phenyl]-3-[(3S,4R)-4-(4-fluorophenyl)-1-{[1-(2-hydroxy-2-methylpropanoyl)piperidin-4-yl]carbonyl}pyrrolidin-3-yl]-1,3-dimethylurea]: 0.07 nM and 2.4 nM.
Turning to `CC(=O)N1CCC(C(=O)N2CC[C@@H](N(C)C(=O)N(C)c3cc(C(F)(F)F)cc(C(F)(F)F)c3)[C@H](c3ccc(F)cc3)C2)CC1` (relative stereo) [Example 4, 1-[(3R*,4R*)-1-[(1-acetylpiperidin-4-yl)carbonyl]-3-(4-fluorophenyl)piperidin-4-yl]-3-[3,5-bis(trifluoromethyl)phenyl]-1,3-dimethylurea], the half-inhibitory concentration (IC50) on Human NK1 Receptor stood at 0.11 nM; in assay [1], 4200 nM.
Turning to `CN(C(=O)N(C)[C@@H]1CN(C(=O)N2CCN(S(C)(=O)=O)CC2)C[C@H]1c1ccc(F)cc1)c1cc(Cl)cc(Cl)c1` [Example 420, 1-(3,5-dichlorophenyl)-3-[(3S,4R)-4-(4-fluorophenyl)-1-{[4-(methylsulfonyl)piperazin-1-yl]carbonyl}pyrrolidin-3-yl]-1,3-dimethylurea], the IC50 turned out to be 0.03 nM at Human NK1 Receptor, 77 nM in assay [1] and 120 nM in assay [2].
As to `CC(=O)N1CCC(C(=O)N2C[C@@H](N(C)C(=O)N(C)c3cc(Cl)cc(Cl)c3)[C@H](c3ccc(F)cc3)C2)CC1` [Example 176, 1-[(3S,4R)-1-[(1-acetylpiperidin-4-yl)carbonyl]-4-(4-fluorophenyl)pyrrolidin-3-yl]-3-(3,5-dichlorophenyl)-1,3-dimethylurea], the half-maximal inhibitory concentration (IC50) at Human NK1 Receptor turned out to be 0.029 nM; in assay [1] it was 12 nM; in assay [2] (setting [3]) it was 600 nM.
The matching figures for `CC(=O)N1CCC(C(=O)N2CC[C@@H](N(C)C(=O)N(C)c3cc(C(F)(F)F)cc(C(F)(F)F)c3)[C@H](c3ccc(Cl)c(Cl)c3)C2)CC1` [Example 25, 1-[(3R,4R)-1-[(1-acetylpiperidin-4-yl)carbonyl]-3-(3,4-dichlorophenyl)piperidin-4-yl]-3-[3,5-bis(trifluoromethyl)phenyl]-1,3-dimethylurea]: 0.031 nM, 7.1 nM and 1400 nM.

The values are drawn from patent US8592454B2, “Nitrogen-containing heterocyclic compound and use of same” (Takeda Pharmaceutical Company Limited, priority 2008, dated 2013).
